For one molecule, Ki results are on record in ChEMBL document CHEMBL1126318, “Discovery of a potent substance P antagonist: recognition of the key molecular determinant” (J Med Chem, 1992).

The assay concerns the target Substance-P receptor (Homo sapiens, UniProt P25103). The assay can be described thus: In vitro binding affinity for the Tachykinin receptor 1 in human IM-9 cell using [125I]BH-SP of the compound. The format is cell-based.

Sequence of Substance-P receptor (P25103 whole entry): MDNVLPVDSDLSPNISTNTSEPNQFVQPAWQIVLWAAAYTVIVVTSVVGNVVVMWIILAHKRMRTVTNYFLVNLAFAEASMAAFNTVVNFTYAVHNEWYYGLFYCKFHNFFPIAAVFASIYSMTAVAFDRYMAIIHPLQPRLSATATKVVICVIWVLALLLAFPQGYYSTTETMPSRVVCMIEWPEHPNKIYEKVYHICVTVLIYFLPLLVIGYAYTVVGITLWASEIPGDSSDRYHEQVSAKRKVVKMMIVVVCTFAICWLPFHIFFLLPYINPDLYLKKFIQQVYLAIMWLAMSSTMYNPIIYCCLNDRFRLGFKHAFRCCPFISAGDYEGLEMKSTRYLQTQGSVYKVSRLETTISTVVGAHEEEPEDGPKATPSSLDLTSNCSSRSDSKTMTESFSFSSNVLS

The term Ki denotes a measure of affinity in units of concentration, obtained from inhibition or displacement. A higher Ki goes with weaker binding. In turn, `COc1ccccc1CN[C@H]1CCCN[C@H]1C(c1ccccc1)c1ccccc1` (racemic) had an inhibition constant Ki of 0.049 µM.
